According to US20100160255A1, “SPIRO-CYCLIC COMPOUND” (Takeda Pharmaceutical Company Limited, priority 2005, published 2010):
Read-outs that look alike come from different tables or passages of the source.

Experiments:
human ACC1 = biological target: T1, human ACC1 (Homo sapiens, UniProt Q13085); test: ACC1 inhibitory activity (malachite green absorbance assay, recombinant enzyme); assay type: biochemical
T1 construct: made in house; host or cells: SF-9 insect cells, recombinant baculovirus BAC-ACC1
Experimental: The ACC1 inhibitory activity of the compound of the present invention was evaluated by the following method.
(§1) Human ACC1 gene was cloned by PCR using human liver cDNA library (Clontech) as a template, and Primer 1 and Primer 2 shown below. Primer 1 and Primer 2 were prepared by adding recognition sequence of restriction enzymes SalI and NotI based on the information of the base sequence (Genbank Accession U19822) of human ACC1 gene.
(§2) PCR was performed using Pyrobest DNA polymerase (TAKARA BIO INC.). The obtained PCR product was cloned to pT7 Blue vector (Novagen) which was, after confirmation of the base sequence, digested with restriction enzymes SalI and NotI. The obtained DNA fragment was inserted into pFAST-BacHTc (Invitrogen) digested with restriction enzymes SalI and NotI to give expression plasmid ACC1/pFAST-BacHTc.
Using the expression plasmid and BAC-TO-BAC Baculovirus Expression System (Invitrogen), virus stock BAC-ACC1 of recombinant Baculovirus was prepared.
(§3) SF-9 cells (Invitrogen) were sown at 1×10^6 cells/mL to insect cell culture medium (1 L, Sf-900II SFM medium (Invitrogen) containing 10% fetal bovine serum (Trace), 50 mg/L gentamicin (Invitrogen) and 0.1% Pluronic F-68 (Invitrogen)), and shaking culture was performed using a 2 L volume Erlenmeyer flask at 27° C., 100 rpm.
After culturing for 24 hr, the recombinant Baculovirus BAC-ACC1 (10 mL) was added, and the mixture was further cultured for 3 days. The culture medium was centrifuged at 1000×g for 5 min to give virus-infected cells. The infected cells were washed with phosphate buffered saline (Invitrogen) and centrifuged under the same conditions, and the obtained cells were cryopreserved at −80° C.
The cryopreserved cells were thawed in ice, suspended in 25 mM HEPES buffer (100 mL, pH 7.5) containing 10% Glycerol, 0.13 M NaCl, 1 mM EDTA, 25 mM sodium β-glycerophosphate, 1 mM sodium orthovanadate, added with Complete Protease Inhibitor (Boehringer). The obtained suspension was homogenized 3 times with a Polytron homogenizer (Kinematica) at 20,000 rpm for 30 seconds. The obtained cell disrupt solution was clarified by centrifugation at 185700×g for 50 min and filtrated using a 0.45 μm filter. The filtrate was passed through a column packed with Ni-NTA Super Flow Gel (QIAGEN, 12 mL) at a flow rate of about 5 mL/min. The column was washed with buffer A (50 mM HEPES containing 0.3M NaCl, pH 7.5), further washed with buffer A containing 20 mM Imidazole, and eluted with buffer A containing 100 mM Imidazole. The eluate was concentrated with Vivaspin 20 (Vivascience) having a molecular weight cut off of 30 K. The obtained concentrate was dialyzed using Sephadex G-25 (Amersham Bioscience K.K., 358 mL) equilibrated with 50 mM HEPES (pH7.5) containing 10 mM MgCl2, 2 mM dithiothreitol, 10 mM tripotassium citrate and 0.3M NaCl. The dialysate was concentrated with Vivaspin 20 (Vivascience) having a molecular weight cut off of 30 K and the concentrate was filtered through a 0.22 μm filter to give ACC1. The obtained ACC1 was cryopreserved at −80° C.
ACC1 (0.93 mg/ml) obtained in (2) above was diluted to a concentration of 8 μg/ml with an enzyme reaction buffer (50 mM HEPES (pH7.5), 10 mM MgCl2, 10 mM tripotassium citrate, 2 mM dithiothreitol, 0.75 mg/ml fatty acid free BSA), and added to each well of a 384 well assay plate (Nunc 265196) by 10 μl. […]

human ACC2 = biological target: T2, human ACC2 (Homo sapiens, UniProt O00763); test: ACC2 inhibitory activity (malachite green absorbance assay, recombinant ACC2(Nd)); assay type: biochemical
T2 construct: made in house; host or cells: SF-9 insect cells, recombinant baculovirus BAC-ACC2(Nd)
Experimental: The ACC2 inhibitory activity of the compound of the present invention was evaluated by the following method.
as §1, with “ACC2” for “ACC1”, “skeletal muscle” for “liver”, “XbaI” for “NotI”, “U89344)” for “U19822)”
as §2, with “XbaI.” for “NotI.”, “pFAST-BacHTa” for “pFAST-BacHTc”, “XbaI” for “NotI”, “ACC2/pFAST-BacHTa.” for “ACC1/pFAST-BacHTc.”
A plasmid for expression of ACC2 free of mitochondrial targeting sequence was prepared by PCR using the expression plasmid as a template, and Primer 3 and Primer 4 shown below.
as §2, with “AflII.” for “NotI.”, “pFAST-BacHTa” for “pFAST-BacHTc”, “AflII” for “NotI”, “ACC2mito7/pFAST-BacHTa.” for “ACC1/pFAST-BacHTc.”
Using the expression plasmid and BAC-TO-BAC Baculovirus Expression System (Invitrogen), virus stock BAC-ACC2 of recombinant Baculovirus (N terminal deletion (hereinafter Nd)) was prepared.
as §3, with “0.5×10^6” for “1×10^6”, “(2” for “(1”, “Wave Bioreactor (Wave) under the conditions of” for “2 L volume Erlenmeyer flask at”, “20 rpm, rocking angle of 6° and oxygen concentration of 30%.” for “100 rpm.”
On day 4 of the culture, 3 L of an insect cell culture medium was added, the rocking angle was set to 8°, and the cells were further cultured. On day 5 of the culture, the recombinant Baculovirus BAC-ACC2(Nd) (100 mL) was added, 5 L of the insect cell culture medium was further added, the rocking angle was set to 11°, and the cells were cultured for 3 days. The culture medium was centrifuged at 1000×g for 10 min to give virus-infected cells. The infected cells were washed with phosphate buffered saline (Invitrogen) and centrifuged under the same conditions, and the obtained cells were cryopreserved at −80° C.
The cryopreserved cells were thawed in ice, suspended in 25 mM HEPES buffer (900 mL, pH 7.5) containing 10% Glycerol, 0.13 M NaCl, 1 mM EDTA, 25 mM sodium β-glycerophosphate, 1 mM sodium orthovanadate, added with Complete Protease Inhibitor (Boehringer). The obtained suspension was homogenized 3 times with a Polytron homogenizer (Kinematica) at 20,000 rpm for 30 seconds. The obtained cell disrupt solution was clarified by centrifugation at 31000×g for 60 min and filtrated using a 0.45 μm filter. The filtrate was passed through a column packed with Ni-NTA Super Flow Gel (QIAGEN, 60 mL) at a flow rate of about 5 mL/min. The column was washed with buffer A (50 mM HEPES containing 0.3M NaCl, pH 7.5), further washed with buffer A containing 20 mM Imidazole, and eluted with buffer A containing 100 mM Imidazole. The eluate was concentrated with Vivaspin 20 (Vivascience) having a molecular weight cut off of 30 K. The obtained concentrate was dialyzed against 50 mM HEPES (pH7.5) containing 10 mM MgCl2, 2 mM dithiothreitol, 10 mM tripotassium citrate and 0.3M NaCl. The dialysate was filtered through a 0.22 μm filter to give ACC2(Nd). The obtained ACC2(Nd) was cryopreserved at −80° C. […]

[1] = Table 8, recombinant human ACC1, 30° C., absorbance 620 nm, read-out: IC50 (ACC1 inhibitory activity)
[2] = Table 9, recombinant human ACC2(Nd), N terminal deletion, 30° C., absorbance 620 nm, read-out: IC50 (ACC2 inhibitory activity)
[3] = Experimental Example 3, same manner as Experimental Example 1, read-out: IC50 values (ACC1 inhibitory activity)

T2 sequence (O00763 117-2458 limits assumed): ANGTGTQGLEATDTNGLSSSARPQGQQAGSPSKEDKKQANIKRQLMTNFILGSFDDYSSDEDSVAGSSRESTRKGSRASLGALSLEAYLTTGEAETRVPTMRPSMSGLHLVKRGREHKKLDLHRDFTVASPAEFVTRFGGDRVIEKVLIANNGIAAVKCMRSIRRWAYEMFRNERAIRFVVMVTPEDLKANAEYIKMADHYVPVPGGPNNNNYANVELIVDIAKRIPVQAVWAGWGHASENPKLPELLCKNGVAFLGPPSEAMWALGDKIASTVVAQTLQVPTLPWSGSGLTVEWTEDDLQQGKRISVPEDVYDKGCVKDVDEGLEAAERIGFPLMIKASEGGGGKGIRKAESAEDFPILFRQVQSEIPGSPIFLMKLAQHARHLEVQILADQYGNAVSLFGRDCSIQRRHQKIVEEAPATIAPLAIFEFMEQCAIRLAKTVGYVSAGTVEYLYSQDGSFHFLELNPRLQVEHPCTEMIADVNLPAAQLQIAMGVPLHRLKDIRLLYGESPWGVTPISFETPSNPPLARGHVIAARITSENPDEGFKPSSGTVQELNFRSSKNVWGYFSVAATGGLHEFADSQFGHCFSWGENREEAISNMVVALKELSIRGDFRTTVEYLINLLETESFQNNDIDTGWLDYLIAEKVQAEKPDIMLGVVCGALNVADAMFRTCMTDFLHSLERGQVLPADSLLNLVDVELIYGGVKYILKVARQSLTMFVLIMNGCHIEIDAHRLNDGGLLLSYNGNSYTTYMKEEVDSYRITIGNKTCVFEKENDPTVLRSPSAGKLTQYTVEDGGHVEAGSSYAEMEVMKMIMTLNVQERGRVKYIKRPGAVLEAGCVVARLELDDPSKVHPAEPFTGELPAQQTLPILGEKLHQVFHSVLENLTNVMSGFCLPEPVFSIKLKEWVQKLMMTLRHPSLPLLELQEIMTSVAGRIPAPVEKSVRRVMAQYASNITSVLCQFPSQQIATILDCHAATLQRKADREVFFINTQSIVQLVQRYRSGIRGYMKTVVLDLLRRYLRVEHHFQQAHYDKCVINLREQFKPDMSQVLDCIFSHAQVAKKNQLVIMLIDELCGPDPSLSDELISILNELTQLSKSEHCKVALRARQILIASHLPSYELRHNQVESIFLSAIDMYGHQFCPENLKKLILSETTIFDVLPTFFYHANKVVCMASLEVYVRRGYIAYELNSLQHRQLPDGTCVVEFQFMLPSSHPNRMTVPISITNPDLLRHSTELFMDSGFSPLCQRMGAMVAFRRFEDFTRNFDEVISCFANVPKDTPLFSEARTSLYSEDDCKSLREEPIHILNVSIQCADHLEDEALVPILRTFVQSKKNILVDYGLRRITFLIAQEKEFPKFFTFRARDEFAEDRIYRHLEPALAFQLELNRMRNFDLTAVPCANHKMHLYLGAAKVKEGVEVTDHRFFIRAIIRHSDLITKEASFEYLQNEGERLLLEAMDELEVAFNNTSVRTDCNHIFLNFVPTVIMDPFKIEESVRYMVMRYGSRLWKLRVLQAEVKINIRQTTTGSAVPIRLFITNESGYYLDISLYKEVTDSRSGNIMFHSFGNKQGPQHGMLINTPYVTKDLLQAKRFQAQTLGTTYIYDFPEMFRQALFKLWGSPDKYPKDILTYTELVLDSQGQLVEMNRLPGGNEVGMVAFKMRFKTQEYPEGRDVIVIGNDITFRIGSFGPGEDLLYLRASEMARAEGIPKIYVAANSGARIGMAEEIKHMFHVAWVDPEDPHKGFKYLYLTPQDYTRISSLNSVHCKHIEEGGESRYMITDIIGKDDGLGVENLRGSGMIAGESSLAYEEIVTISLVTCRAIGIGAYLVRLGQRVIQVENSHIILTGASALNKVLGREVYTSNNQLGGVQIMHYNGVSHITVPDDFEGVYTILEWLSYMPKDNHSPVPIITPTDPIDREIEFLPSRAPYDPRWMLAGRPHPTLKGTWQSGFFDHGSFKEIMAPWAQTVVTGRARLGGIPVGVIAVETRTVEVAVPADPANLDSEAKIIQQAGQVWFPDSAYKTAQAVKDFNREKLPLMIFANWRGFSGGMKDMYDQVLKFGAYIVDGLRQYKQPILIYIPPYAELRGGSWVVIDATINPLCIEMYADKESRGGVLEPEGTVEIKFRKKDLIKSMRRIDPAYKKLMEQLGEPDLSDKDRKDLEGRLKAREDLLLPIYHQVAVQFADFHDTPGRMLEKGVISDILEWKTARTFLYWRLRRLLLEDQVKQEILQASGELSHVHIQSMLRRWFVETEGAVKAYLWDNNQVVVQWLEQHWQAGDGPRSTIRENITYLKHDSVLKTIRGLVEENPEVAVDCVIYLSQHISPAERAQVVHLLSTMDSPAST

| SMILES | IC50 (human ACC1; [1]) [µM] | IC50 (human ACC2; [2]) [µM] | IC50 (human ACC1; [3]) [µM] | IC50 (human ACC2; Experimental Example 4, same manner as Experimental Example 2, read-out: IC50 values (ACC2 inhibitory activity)) [µM] |
| --- | --- | --- | --- | --- |
| CCCN1CCC2(CCCN(C3CCN(C(=O)c4c(NC(N)=O)sc5ccccc45)CC3)C2)C1=O (centres unmarked) [Example 352, N-(3-{[4-(1-oxo-2-propyl-2,7-diazaspiro[4.5]dec-7-yl)piperidin-1-yl]carbonyl}-1-benzothien-2-yl)urea] | 0.29 | 0.041 |  |  |
| CNC(=O)Nc1sc2ccccc2c1C(=O)N1CCC(N2CCCC3(CCN(C(C)C)C3=O)C2)CC1 (centres unmarked) [Example 360, N-(3-{[4-(2-isopropyl-1-oxo-2,7-diazaspiro[4.5]dec-7-yl)piperidin-1-yl]carbonyl}-1-benzothien-2-yl)-N′-methylurea] | 0.11 | 0.022 |  |  |
| CC(C)N1C(=O)CC2(CCCN(C3CCN(C(=O)c4c(NC(N)=O)sc5ccccc45)CC3)C2)C1=O (centres unmarked) [Example 366, N-(3-{[4-(2-isopropyl-1,3-dioxo-2,7-diazaspiro[4.5]dec-7-yl)piperidin-1-yl]carbonyl}-1-benzothien-2-yl)urea] | 0.18 | 0.018 |  |  |
| CC(C)NC(=O)Nc1sc2ccccc2c1C(=O)N1CCC(N2CCCC3(CC(=O)NC3=O)C2)CC1 (centres unmarked) [Example 397, N-(3-{[4-(1,3-dioxo-2,7-diazaspiro[4.5]dec-7-yl)piperidin-1-yl]carbonyl}-1-benzothien-2-yl)-N′-isopropylurea] | 0.22 | 0.039 |  |  |
| CCNC(=O)Nc1sc2ccccc2c1C(=O)N1CCC(N2CCCC3(CCN(CC)C3=O)C2)CC1 (centres unmarked) [Example 400, N-ethyl-N′-(3-{[4-(2-ethyl-1-oxo-2,7-diazaspiro[4.5]dec-7-yl)piperidin-1-yl]carbonyl}-1-benzothien-2-yl)urea] | 0.097 | 0.013 | ≤ 0.1 |  |
| CCNC(=O)Nc1sc2ccccc2c1C(=O)N1CCC(N2CCCC3(C2)N=C(C)N(CC)C3=O)CC1 (centres unmarked) [Example 401, 1-ethyl-3-(3-{[4-(3-ethyl-2-methyl-4-oxo-1,3,7-triazaspiro[4.5]dec-1-en-7-yl)piperidin-1-yl]carbonyl}-1-benzothien-2-yl)urea] | 0.073 | 0.015 | ≤ 0.1 |  |
| CCNC(=O)Nc1sc2c(c1C(=O)N1CCC(N3CCCC4(C3)OC(=O)N(C(C)(C)C)C4=O)CC1)CCCC2=O (centres unmarked) [Example 420, N-(3-{[4-(3-tert-butyl-2,4-dioxo-1-oxa-3,7-diazaspiro[4.5]dec-7-yl)piperidin-1-yl]carbonyl}-7-oxo-4,5,6,7-tetrahydro-1-benzothien-2-yl)-N′-ethylurea] |  |  | ≤ 0.1 | ≤ 0.01 |

More lines, now with the values ahead:

| IC50 (human ACC1; [1]) [µM] | IC50 (human ACC2; [2]) [µM] | IC50 (human ACC1; [3]) [µM] | IC50 (human ACC2; Experimental Example 4, same manner as Experimental Example 2, read-out: IC50 values (ACC2 inhibitory activity)) [µM] | SMILES |
| --- | --- | --- | --- | --- |
| 0.13 | 0.022 |  |  | CCN1C(=O)CC2(CCCN(C3CCN(C(=O)c4c(NC(N)=O)sc5ccccc45)CC3)C2)C1=O (centres unmarked) [Example 340, 1-(3-{[4-(2-ethyl-1,3-dioxo-2,7-diazaspiro[4.5]dec-7-yl)piperidin-1-yl]carbonyl)-1-benzothien-2-yl)urea] |
| 0.34 | 0.03 |  |  | CCCN1C(=O)OC2(CCCN(C3CCN(C(=O)c4c(NC(N)=O)sc5ccccc45)CC3)C2)C1=O (centres unmarked) [Example 343, N-(3-{[4-(2,4-dioxo-3-propyl-1-oxa-3,7-diazaspiro[4.5]dec-7-yl)piperidin-1-yl]carbonyl}-1-benzothien-2-yl)urea] |
| 0.31 | 0.034 |  |  | CCN1C(=O)OC2(CCCN(C3CCN(C(=O)c4c(NC(=O)NC)sc5ccccc45)CC3)C2)C1=O (centres unmarked) [Example 347, N-(3-{[4-(3-ethyl-2,4-dioxo-1-oxa-3,7-diazaspiro[4.5]dec-7-yl)piperidin-1-yl]carbonyl)-1-benzothien-2-yl)-N′-methylurea] |
| 0.34 | 0.056 |  |  | CCN1C(=O)CC2(CCCN(C3CCN(C(=O)c4c(NC(=O)NC)sc5ccccc45)CC3)C2)C1=O (centres unmarked) [Example 363, N-(3-{[4-(2-ethyl-1,3-dioxo-2,7-diazaspiro[4.5]dec-7-yl)piperidin-1-yl]carbonyl}-1-benzothien-2-yl)-N′-methylurea] |
| 0.21 | 0.045 |  |  | CCNC(=O)Nc1sc2ccccc2c1C(=O)N1CCC(N2CCCC3(CC(=O)N(C)C3=O)C2)CC1 (centres unmarked) [Example 380, N-ethyl-N′-(3-{[4-(2-methyl-1,3-dioxo-2,7-diazaspiro[4.5]dec-7-yl)piperidin-1-yl]carbonyl}-1-benzothien-2-yl)urea] |
